Read-outs that look alike come from different tables or passages of the source. Marks after values point to notes of the source that are not given here.
What was measured:
[1] = tested on: Enterococcus spp. (E. faecalis, E. faecium); test: Broth microdilution MIC (Example 11); format: cell-based; conditions: Enterococcus faecium, VRE, E. faecium MMX 485; VRE, vanA, LevR, CipR, EryR; read-out: MIC
[2] = tested on: beta-hemolytic streptococci (S. pyogenes, S. agalactiae); test: Broth microdilution MIC (Example 11); format: cell-based, Streptococcus pyogenes, Streptococcus agalactiae; conditions: read-out: MIC
[3] = tested on: P. aeruginosa; test: Checkerboard FIC assay, BisEDT with CF agents (Example 10); format: cell-based, Pseudomonas aeruginosa; conditions: for FICB: Colistin FIC in combination with BisEDT; for FICB / MICB: per checkerboard row; for MICB: Colistin MIC in combination with BisEDT; for Drug B MIC: Colistin alone (checkerboard with BisEDT)
[4] = tested on: Burkholderia cepacia complex; test: as above; format: cell-based, Burkholderia spp.; conditions: B. multivorans 1795; FIC of Colistin in combination with BisEDT
[5] = tested on: Candida albicans; test: Broth microdilution MIC, yeast (Example 13); format: cell-based
[6] = tested on: Candida glabrata; test: Broth microdilution MIC, yeast (Example 13); format: cell-based
[7] = tested on: Candida krusei; test: Broth microdilution MIC, yeast (Example 13); format: cell-based
[8] = tested on: Candida auris; test: Broth microdilution MIC, yeast (Example 13); format: cell-based
[9] = tested on: Aspergillus spp.; test: Broth microdilution MIC/MEC, mold (Example 13); format: cell-based

CCC[C@@H]1C[C@@H](C(=O)N[C@@H]([C@H]2O[C@H](SC)[C@H](O)[C@@H](O)[C@H]2O)[C@H](C)Cl)N(C)C1 [clindamycin, reference compound]
MIC [1]: > 32 µg/mL
MIC ([2]; S. agalactiae MMX 3741, ERY^R CC^R): > 8 µg/mL
MIC ([2]; S. agalactiae MMX 3743, ERY^R CC^R): > 8 µg/mL
MIC ([2]; S. agalactiae MMX 4077, ERY^R CC^R): > 8 µg/mL
MIC ([2]; S. agalactiae MMX 4079, ERY^R CC^R Pen^R MEM^R): > 8 µg/mL
MIC ([2]; S. agalactiae MMX 4086, ERY^R CC^R): > 8 µg/mL

Colistin
FICB ([3]; P. aeruginosa 6322): 1
MICB ([3]; P. aeruginosa 6322): 0.5 µg/mL
Drug B MIC ([3]; P. aeruginosa 6322): 0.5 µg/mL
FICB ([3]; P. aeruginosa 6977): 1
MICB ([3]; P. aeruginosa 6977): 1 µg/mL
Drug B MIC ([3]; P. aeruginosa 6977): 1 µg/mL
FICB ([3]; P. aeruginosa 7745): 1
MICB ([3]; P. aeruginosa 7745): 0.5 µg/mL
Drug B MIC ([3]; P. aeruginosa 7745): 0.5 µg/mL
Drug B MIC ([3]; P. aeruginosa 8798): >256 µg/mL
Drug B MIC ([3]; P. aeruginosa 9108): 0.5 µg/mL
FICB [4]: 1

CC[C@H](C)C[C@H](C)CCCCCCCCC(=O)N[C@H]1C[C@@H](O)[C@@H](NCCN)NC(=O)[C@@H]2[C@@H](O)CCN2C(=O)[C@H]([C@H](O)CCN)NC(=O)[C@H]([C@H](O)[C@@H](O)c2ccc(O)cc2)NC(=O)[C@@H]2C[C@@H](O)CN2C(=O)[C@H]([C@@H](C)O)NC1=O [CASP]
MIC2 (50% inhibition) ([5]; Candida albicans ATCC 90028, Susceptible, 24 hr): 0.06 µg/mL
MIC2 (50% inhibition) ([5]; Candida albicans ATCC 204276, MICA-R, 24 hr): 0.25 µg/mL
MIC2 (50% inhibition) ([5]; Candida albicans ATCC MYA-2732, FLU-R, VORI-I, 24 hr): 0.06 µg/mL
MIC2 (50% inhibition) ([5]; Candida albicans MMX 7053, Susceptible, 24 hr): 0.06 µg/mL
MIC2 (50% inhibition) ([5]; Candida albicans MMX 7067, FLU-R, VORI-R, 24 hr): 0.06 µg/mL
MIC2 (50% inhibition) ([5]; Candida albicans MMX 7403, Susceptible, 24 hr): 0.06 µg/mL
MIC2 (50% inhibition) ([5]; Candida albicans MMX 7424, CASP-R, MICA-R, 24 hr): 8 µg/mL
MIC2 (50% inhibition) ([5]; Candida albicans MMX 7430, Susceptible, 24 hr): 0.06 µg/mL
MIC2 (50% inhibition) ([5]; Candida albicans MMX 7437, FLU-I, 24 hr): 0.06 µg/mL
MIC2 (50% inhibition) ([5]; Candida albicans MMX 7445, FLU-R, VORI-R, result after 48 hr incubation (insufficient growth at 24 hr)): 0.06^a μg/mL
MIC2 (50% inhibition) ([6]; Candida glabrata ATCC 90030, Susceptible): 0.12 µg/mL
MIC2 (50% inhibition) ([6]; Candida glabrata ATCC MYA-2950, Susceptible): 0.12 µg/mL
MIC2 (50% inhibition) ([6]; Candida glabrata MMX 7087, Susceptible): 0.12 µg/mL
MIC2 (50% inhibition) ([6]; Candida glabrata MMX 7093, FLU-R): 0.12 µg/mL
MIC2 (50% inhibition) ([6]; Candida glabrata MMX 7101, FLU-R): 0.12 µg/mL
MIC2 (50% inhibition) ([6]; Candida glabrata MMX 7103, CASP-R, MICA-R): >8 µg/mL
MIC2 (50% inhibition) ([6]; Candida glabrata MMX 7111, Susceptible): 0.12 µg/mL
MIC2 (50% inhibition) ([6]; Candida glabrata MMX 7285, CASP-R, MICA-R): 0.5 µg/mL
MIC2 (50% inhibition) ([6]; Candida glabrata MMX 7307, CASP-R, MICA-R, FLU-R): >8 µg/mL
MIC2 (50% inhibition) ([6]; Candida glabrata MMX 7549, Susceptible): 0.06 µg/mL
MIC2 (50% inhibition) ([7]; C. krusei ATCC 6258, MICA-I): 0.25 µg/mL
MIC2 (50% inhibition) ([7]; C. krusei ATCC 14243, Susceptible): 0.012 µg/mL
MIC2 (50% inhibition) ([7]; C. krusei ATCC 96685, Susceptible): 0.12 µg/mL
MIC2 (50% inhibition) ([7]; C. krusei MMX 7125, Susceptible): 0.25 µg/mL
MIC2 (50% inhibition) ([7]; C. krusei MMX 7128, Susceptible): 0.25 µg/mL
MIC2 (50% inhibition) ([7]; C. krusei MMX 7141, Susceptible): 0.25 µg/mL
MIC2 (50% inhibition) ([7]; C. krusei MMX 7153, MICA-R): 0.25 µg/mL
MIC2 (50% inhibition) ([7]; C. krusei MMX 7155, Susceptible): 0.25 µg/mL
MIC2 (50% inhibition) ([7]; C. krusei MMX 7563, Susceptible): 0.12 µg/mL
MIC2 (50% inhibition) ([7]; C. krusei MMX 9878, MICA-I, VORI-I): 0.25 µg/mL
MIC2 (50% inhibition) ([8]; C. auris MMX 9862, Susceptible): 0.12 µg/mL
MIC2 (50% inhibition) ([8]; C. auris MMX 9863, FLU-R, VORI-R): 0.12^b μg/mL
MIC2 (50% inhibition) ([8]; C. auris MMX 9864, FLU-R, VORI-R): 0.25^b μg/mL
MIC2 (50% inhibition) ([8]; C. auris MMX 9865, FLU-R, VORI-R): 0.25^b μg/mL
MIC2 (50% inhibition) ([8]; C. auris MMX 9866, FLU-R, VORI-R): 0.12^b μg/mL
MIC2 (50% inhibition) ([8]; C. auris MMX 9867, FLU-R, VORI-R): 0.12 µg/mL
MIC2 (50% inhibition) ([8]; C. auris MMX 9868, FLU-R, VORI-R): 0.25 µg/mL
MIC2 (50% inhibition) ([8]; C. auris MMX 9869, FLU-R, VORI-R): 0.25 µg/mL
MIC2 (50% inhibition) ([8]; C. auris MMX 9870, FLU-R, VORI-R): 0.25 µg/mL
MIC2 (50% inhibition) ([8]; C. auris MMX 9871, Susceptible): 0.25^b μg/mL
MEC (minimum effective concentration) ([9]; A. flavus ATCC 22546): 0.06 µg/mL
MEC (minimum effective concentration) ([9]; A. flavus ATCC 204304): 0.06 µg/mL
MEC (minimum effective concentration) ([9]; A. flavus MMX 7935): 0.03 µg/mL
MEC (minimum effective concentration) ([9]; A. fumigatus ATCC 204305): 0.25 µg/mL
MEC (minimum effective concentration) ([9]; A. fumigatus ATCC MYA-3626): 0.06 µg/mL
MEC (minimum effective concentration) ([9]; A. fumigatus MMX 5934): 0.12 µg/mL
MEC (minimum effective concentration) ([9]; A. fumigatus MMX 5938, 48 hr only, insufficient growth for 24 hr read): 0.12^b μg/mL
MEC (minimum effective concentration) ([9]; A. fumigatus MMX 5939): 0.12 µg/mL
MEC (minimum effective concentration) ([9]; A. niger ATCC 29508, 48 hr only, insufficient growth for 24 hr read): 0.06^b μg/mL
MEC (minimum effective concentration) ([9]; A. terreus MMX 8229, 48 hr only, insufficient growth for 24 hr read): 0.12^b μg/mL
